Holding throughout (assay): Agar dilution MIC assay
For orientation: Agar dilution tests growth on a series of plates holding different concentrations.

For one test, the system named is P. granulosum PRP-044. It counts as cell-based, Propionibacterium granulosum. Particulars: P. granulosum PRP-044 (MLS). The protocol: (§1) The propionibacteria were cultured and maintained on Wilkins-Chalgren Anaerobe Medium (agar and broth) at pH 6.0; all cultures were incubated anaerobically at 37° C. for 72 hours.
(§2) This is a standard international method for quantitatively assessing the antimicrobial activity of a compound in a solid medium. The test compound was prepared to 40× the highest concentration required (eg, 10 mg/ml for a final concentration of 250 μg/ml) and a series of doubling dilutions were performed in a suitable solvent. A set amount of these antimicrobial stock solutions was then added to molten agar medium (ca. 55° C.), mixed thoroughly, poured into sterile Petri dishes and allowed to cool/set.
(§3) A Multipoint™ Inoculator (AQS Manufacturing Ltd, UK) was used to inoculate the plates by spotting the inocula onto the surface of the agar, delivering approximately 1 to 2 μl per spot (yielding 10^5 CFU(colony forming units) per spot).
(§4) The plate(s) were then incubated under the conditions described above, following which they were examined visually for signs of bacterial growth. The MIC value was ascertained when there was a marked reduction in, or total loss of, growth on the test plate at the lowest concentration as compared to that of the growth on the control plate.
(§5) The assays were conducted in duplicate and included a positive control (culture medium, diluting solvent and inoculum).

In a further test the test system is P. granulosum PRP-043. Format: cell-based, Propionibacterium granulosum. To be noted: P. granulosum PRP-043 (MLS). On the procedure: as §1, §2, §3, §4, §5
Another test has as its system P. granulosum NCTC 11865. Format: cell-based, Propionibacterium granulosum. Particulars: P. granulosum NCTC 11865 (resistance None). On the procedure:
as §1, §2, §3, §4, §5

A further test deals with P. granulosum PRP-005. It counts as cell-based, Propionibacterium granulosum. To be noted: P. granulosum PRP-005 (MLSK). The protocol: as §1, §2, §3, §4, §5
Another test deals with P. granulosum PRP-006. It counts as cell-based, Propionibacterium granulosum. To be noted: P. granulosum PRP-006 (MLS). On the procedure:
as §1, §2, §3, §4, §5

The test system of the next test is P. granulosum PRP-019. Format: cell-based, Propionibacterium granulosum. Particulars: P. granulosum PRP-019 (MLSK). The protocol:
as §1, §2, §3, §4, §5

Another test relates to P. granulosum PRP-055. It counts as cell-based, Propionibacterium granulosum. Particulars: P. granulosum PRP-055 (resistance None). On the procedure: as §1, §2, §3, §4, §5
For the next test, the system named is P. granulosum PRP-021. Format: cell-based, Propionibacterium granulosum. Particulars: P. granulosum PRP-021 (MLS). On the procedure:
as §1, §2, §3, §4, §5

The next test concerns P. acnes PRP-010. It counts as cell-based, Propionibacterium acnes. Particulars: P. acnes PRP-010 (MLSK). The protocol: as §1, §2, §3, §4, §5
Another test relates to P. acnes PRP-039. Format: cell-based, Propionibacterium acnes. To be noted: P. acnes PRP-039 (Tet/MLS). On the procedure: as §1, §2, §3, §4, §5
A further test relates to P. acnes PRP-002. It counts as cell-based, Propionibacterium acnes. To be noted: P. acnes PRP-002 (Tet/MLS). On the procedure:
as §1, §2, §3, §4, §5

The test system of another test is P. acnes PRP-068. It counts as cell-based, Propionibacterium acnes. To be noted: P. acnes PRP-068 (Ery). The protocol:
as §1, §2, §3, §4, §5

A further test concerns P. acnes PRP-101. Format: cell-based, Propionibacterium acnes. To be noted: P. acnes PRP-101 (Tet/MLS). The protocol: as §1, §2, §3, §4, §5
A further test has as its system P. acnes PRP-003. Format: cell-based, Propionibacterium acnes. To be noted: P. acnes PRP-003 (Tet). The protocol:
as §1, §2, §3, §4, §5

The subject of a further test is P. acnes PRP-023. Format: cell-based, Propionibacterium acnes. Particulars: P. acnes PRP-023 (MLSK). The protocol:
as §1, §2, §3, §4, §5

The test system of the next test is P. acnes PRP-026. Format: cell-based, Propionibacterium acnes. Particulars: P. acnes PRP-026 (MLS). The protocol:
as §1, §2, §3, §4, §5

A further test has as its system P. acnes PRP-004. Format: cell-based, Propionibacterium acnes. To be noted: P. acnes PRP-004 (Tet). On the procedure:
as §1, §2, §3, §4, §5

A further test has as its system P. acnes PRP-007. Format: cell-based, Propionibacterium acnes. To be noted: P. acnes PRP-007 (Clin). On the procedure:
as §1, §2, §3, §4, §5

The next test concerns P. acnes PRP-008. Format: cell-based, Propionibacterium acnes. Particulars: P. acnes PRP-008 (Clin). On the procedure:
as §1, §2, §3, §4, §5

The test system of the next test is P. acnes PRP-017. Format: cell-based, Propionibacterium acnes. Particulars: P. acnes PRP-017 (MLS). On the procedure: as §1, §2, §3, §4, §5
A further test concerns P. acnes PRP-053. It counts as cell-based, Propionibacterium acnes. To be noted: P. acnes PRP-053 (Tet/MLS). On the procedure:
as §1, §2, §3, §4, §5

A further test deals with P. acnes PRP-046. Format: cell-based, Propionibacterium acnes. Particulars: P. acnes PRP-046 (resistance None). The protocol: as §1, §2, §3, §4, §5
A further test concerns P. acnes PRP-102. Format: cell-based, Propionibacterium acnes. Particulars: P. acnes PRP-102 (Tet/MLS). On the procedure: as §1, §2, §3, §4, §5
The next test has as its system P. acnes PRP-059. Format: cell-based, Propionibacterium acnes. Particulars: P. acnes PRP-059 (MLS). The protocol: as §1, §2, §3, §4, §5

For dioctyl sodium sulphosuccinate [DOSS], the MIC is 31.25 µg/mL against P. granulosum PRP-044; 31.25 µg/mL in the test with P. granulosum PRP-043; 31.25 µg/mL against P. granulosum NCTC 11865; 15.6 µg/mL in the test with P. granulosum PRP-005; 31.25 µg/mL with P. granulosum PRP-006; 15.6 µg/mL against P. granulosum PRP-019. The MIC is 31.25 µg/mL in the test on P. granulosum PRP-055; 31.25 µg/mL in the test with P. granulosum PRP-021; 15.6 µg/mL in the test on P. acnes PRP-010; 15.6 µg/mL with P. acnes PRP-039; 15.6 µg/mL against P. acnes PRP-002; 15.6 µg/mL against P. acnes PRP-068. Also, the MIC against P. acnes PRP-101, in the test with P. acnes PRP-003, in the test with P. acnes PRP-023, in the test with P. acnes PRP-026, in the test with P. acnes PRP-004 and against P. acnes PRP-007 was 15.6 µg/mL throughout. The MIC in the test with P. acnes PRP-008 was determined as 15.6 µg/mL; in the test with P. acnes PRP-017 it was 15.6 µg/mL; against P. acnes PRP-053 it was 15.6 µg/mL; in the test with P. acnes PRP-046, 15.6 µg/mL; with P. acnes PRP-102 it was 31.25 µg/mL; against P. acnes PRP-059, 15.6 µg/mL.

By MIC is commonly meant the lowest concentration that inhibits growth of the organism.

Values taken from patent US20100273876A1, “ANTIBACTERIAL FORMULATION COMPRISING A DIALKYL SULPHOSUCCINATE AND A CARBANILIDE ANTIBACTERIAL AGENT” (priority 2007, published 2010).
